Measurements published in publication PMC7076694, “The Qi Site of Cytochrome b is a Promiscuous Drug Target in Trypanosoma cruzi and Leishmania donovani” (ACS Infectious Diseases, 2020).
Like-named read-outs stand apart in the source and are kept apart here.

Assays:
[1] = target: complex III (cytochrome bc1 complex) (Leishmania donovani, UniProt A5HU08); test: biochemical; format: biochemical
T. cruzi epimastigotes [2] = test: microbe, parasite or virus in culture; format: cell-based; details: Trypanosoma cruzi
[3] = tested on: L. donovani promastigotes; test: microbe, parasite or virus in culture; format: cell-based, Leishmania donovani; details: for EC50: Leishmania donovani
T. brucei Procyclics = test: T. brucei procyclic drug sensitivity (resazurin); format: cell-based, Trypanosoma brucei; details: read-out: EC50 values, T. brucei Pro
Description: To examine the effects of test compounds on growth, mid log procyclics were seeded into 96-well plates at a cell density of 5 × 10^5 cells mL^–1. Cells were exposed to test compounds over a range of concentrations (2-fold serial dilutions). Following 72 h of incubation in the presence of drug, 500 μM resazurin was added to each well and fluorescence measured after a further 2 h incubation.

[4] = tested on: L. donovani Intramacrophage Amastigotes; test: L. donovani intramacrophage amastigote drug sensitivity; format: cell-based; details: Leishmania donovani, read-out: EC50 values, L. donovani Intra-MAC
Description: (§1) T. cruzi and L. donovani intracellular amastigote drug sensitivity assays were conducted as previously described.[42],[43]

T. cruzi epimastigotes [5] = test: T. cruzi epimastigote respiration (O2 consumption, MitoXpress-Xtra); format: cell-based; details: Trypanosoma cruzi, read-out: O2 consumption, IC50 values, T. cruzi
Description: Compounds were predispensed (150 nL well^–1) into 384-well assay plates using an Echo liquid handler (Labcyte Inc.). […] The negative control for this assay was 0.2% DMSO, equivalent to the final concentration of solvent used in drug dilutions.
Our O2 consumption assay was an adaptation of the assay described by Khare and colleagues.[14] Briefly, assay buffer (250 mM sucrose, 15 mM KCl, 5 mM MgCl2, 1 mM EGTA, 30 mM K2HPO4, pH 7.4; 25 μL) was added to 384-well assay plates and incubated at 37 °C for 10 min. Mid log T. cruzi epimastigotes were harvested (1600g for 10 min at 4 °C), washed three times with buffer A (10 mM Tris-HCl, pH 7.4, 230 mM mannitol, 70 mM sucrose, 0.2 mM EDTA, 0.2% bovine serum albumin, 0.5 mM PMSF), and finally resuspended at 1.5 × 10^8 epimastigotes mL^–1. Following resuspension, 3 × 10^6 epimastigotes (20 μL) were dispensed into each well followed by MitoXpress-Xtra probe (15 μL, Agilent) resulting in a final assay volume of 60 μL. Plates were gently shaken, and 30 μL of HS mineral oil (Agilent) was then added to each well to prevent oxygen exchange between the assay buffer and air. Plates were incubated for 90 min at 37 °C, and fluorescence was then measured using an EnVision MultiMode plate reader (PerkinElmer) using excitation and emission wavelengths of 380 and 650 nm, respectively.
Data were normalized to percent of biological response by using positive (i.e., highest response achieved using a chemical tool compound, RactinomycinA) or negative (i.e., lowest response achieved in the absence of any testing compound, RDMSO) controls by using the following equation: [drawing 3] where Rx is the assay response measured in the presence of test compounds.

HepG2 Cells = test: HepG2 cell potency; format: cell-based; details: Homo sapiens
Description: Table 1 Compound Efficacy: Potencies of Compounds Were Determined against L. donovani Promastigotes (Pro), L. donovani Intramacrophage Amastigotes (Intra-MAC), T. cruzi Epimastigotes (Epi), T. cruzi Intra-Vero Cells (Intra-Vero), T. brucei Bloodstream Forms (BSF), T. brucei Procyclics (Pro), and HepG2 Cells ^a | column: HepG2

[6] = tested on: T. cruzi Intra-Vero Cells (intracellular amastigotes); test: T. cruzi intracellular amastigote (Intra-Vero) drug sensitivity; format: cell-based; details: Trypanosoma cruzi; intracellular amastigotes in Vero cells
Description: as §1

[7] = tested on: T. brucei Bloodstream Forms; test: T. brucei bloodstream form drug sensitivity; format: cell-based, Trypanosoma brucei; details: read-out: EC50 values, T. brucei BSF
Description: EC50 values for test compounds were determined as previously described.[40]

[8] = target: complex III (cytochrome bc1 complex) (Trypanosoma cruzi, UniProt Q9T479); test: Complex III (cytochrome c reduction) assay, T. cruzi lysate; format: biochemical; details: mitochondria-enriched lysate of epimastigotes
[9] = tested on: T. cruzi Intra-Vero Cells (intracellular amastigotes); design: method as in PMID 26186534; details: reported previously ref 14; cited from earlier work
T. cruzi epimastigotes [10] = tested on: T. cruzi epimastigotes; design: method as in PMID 26186534; details: reported previously ref 14; read-out: O2 consumption, IC50 values, T. cruzi; cited from earlier work
[11] = target: T1, complex III (cytochrome bc1 complex) (Leishmania donovani, UniProt A5HU08); test: biochemical; format: biochemical; details: read-out: complex III IC50 values, Compound 1 RES1 lysate; lysate of L. donovani Compound 1 RES1 cell line
T1 sequence (A5HU08 1-290): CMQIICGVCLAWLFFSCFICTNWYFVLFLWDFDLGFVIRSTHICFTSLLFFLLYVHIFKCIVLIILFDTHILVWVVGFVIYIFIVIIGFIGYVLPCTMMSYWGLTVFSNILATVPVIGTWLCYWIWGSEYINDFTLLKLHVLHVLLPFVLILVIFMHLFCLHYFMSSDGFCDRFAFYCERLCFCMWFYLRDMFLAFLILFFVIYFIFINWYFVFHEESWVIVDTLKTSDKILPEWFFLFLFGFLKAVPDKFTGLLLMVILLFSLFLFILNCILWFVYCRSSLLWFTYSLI
T1 sequence (A0A3S7WPP0 1-258 partner): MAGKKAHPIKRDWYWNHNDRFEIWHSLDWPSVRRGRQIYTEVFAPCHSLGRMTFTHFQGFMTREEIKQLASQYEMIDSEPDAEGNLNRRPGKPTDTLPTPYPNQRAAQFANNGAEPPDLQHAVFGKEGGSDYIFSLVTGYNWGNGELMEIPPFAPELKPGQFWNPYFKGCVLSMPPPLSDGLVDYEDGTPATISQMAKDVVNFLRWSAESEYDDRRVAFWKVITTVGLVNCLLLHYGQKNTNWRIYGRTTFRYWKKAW

[12] = tested on: L. donovani intracellular amastigotes within macrophages; test: microbe, parasite or virus in culture; format: cell-based; details: Leishmania donovani
[13] = target: T2, complex III (cytochrome bc1 complex) (Leishmania donovani, UniProt A5HU08, F187I); test: biochemical; format: biochemical
T2 sequence (A5HU08 1-290 F187I): T1 sequence (A5HU08 1-290)
T2 sequence (A0A3S7WPP0 1-258 partner): T1 sequence (A0A3S7WPP0 1-258 partner)

[14] = tested on: T. cruzi intracellular amastigotes; design: method as in PMID 25740547; details: high-throughput screening hit ref 13; read-out: EC50 against T. cruzi intracellular amastigotes; cited from earlier work
[15] = wild-type epimastigotes, read-out: EC50 values, T. cruzi Epi
[16] = wild-type promastigotes, read-out: EC50 values, L. donovani Pro
[17] = epimastigotes (3 × 10^6), MitoXpress-Xtra probe
[18] = HepG2 cells, read-out: EC50 values, HepG2
[19] = Trypanosoma brucei, bloodstream form
[20] = Macrophage, read-out: Leishmania EC50, Compound 1 RES1
[21] = Macrophage, read-out: Leishmania EC50, Compound 2 RES1
[22] = intra-macrophage, WT parasites, read-out: Leishmania EC50, WT

| SMILES | IC50 [1] [nM] | EC50 (T. cruzi epimastigotes [2]; [15]) [nM] | EC50 [3, 16] [nM] | EC50 (T. brucei Procyclics; Trypanosoma brucei, procyclics) [nM] | EC50 [4] [nM] | IC50 (T. cruzi epimastigotes [5]; [17]) [nM] | EC50 (HepG2 Cells; [18]) [nM] | EC50 [6] [nM] | EC50 [7, 19] [nM] | IC50 [8] [nM] | EC50 [12, 20] [nM] | EC50 [12, 21] [nM] | EC50 [12, 22] [nM] | further results |
| --- | --- | --- | --- | --- | --- | --- | --- | --- | --- | --- | --- | --- | --- | --- |
| CC(=O)Nc1ccc2[nH]c(=O)n([C@H]3CC[C@H](C(C)C)CC3)c(=O)c2c1 [compound 3] | > 13000 | 320 ± 12 | 1640 ± 54 | 88 ± 2 | > 50000 | 190 ± 38 | 7300 ± 60 | 150 ± 46 | 8700 ± 470 | 86 ± 39 | – | – | – | – |
| CCCCCC[C@H]1C(=O)O[C@H](C)[C@H](NC(=O)c2cccc(NC=O)c2O)C(=O)O[C@@H](C)[C@@H]1OC(=O)CC(C)C [antimycin A, reference compound] | – | 28 ± 1 | 2 ± 0.1 | – | – | – | – | – | – | – | – | – | – | EC50 (T. brucei Procyclics; Trypanosoma brucei): 18 ± 0.5 nM; IC50 (T. cruzi epimastigotes [5]): 200 ± 36 nM; EC50 (HepG2 Cells; HepG2, read-out: EC50 values, HepG2): < 1000 nM; EC50 ([7]; Trypanosoma brucei): > 50000 nM |
| CCc1c(C)c(C#N)c2nc3ccccc3n2c1O [GNF7686, reference compound] | 1600 ± 300 | 710 ± 17 | 570 ± 51 | 521 | > 50000 | – | > 50000 | – | > 50000 | 550 ± 97 | – | – | – | relative sensitivity of L. donovani promastigotes bearing cytochrome b C222F mutation ([3]; compound 1-selected clone, relative to wild-type): markedly cross-resistant; relative sensitivity of L. donovani promastigotes bearing cytochrome b G37A mutation ([3]; compound 1-selected clones, relative to wild-type): remaining sensitive; EC50 (T. brucei Procyclics; procyclics): 520 ± 13 nM; EC50 [9]: 150 ± 30 nM; IC50 (T. cruzi epimastigotes [10]): 210 nM |
| Cc1nn2c(=O)c(Cc3ccc(Cl)cc3)c(C)[nH]c2c1C [compound 1] | 44 ± 7 | 210 ± 7 | 19 ± 1 | 97 ± 3 | 1500 ± 400 | 150 ± 36 | > 50000 | 20 ± 3 | 6600 ± 470 | 72 ± 16 | 1300 | 20 | 100 | IC50 [11]: 220 ± 51 nM; EC50 (T. cruzi epimastigotes [2]; WT epimastigotes, resistance study, read-out: EC50 against WT T. cruzi (Figure 2)): 120 ± 6 nM; EC50 (T. cruzi epimastigotes [2]; compound 1-resistant epimastigote clone RES I, read-out: EC50 against T. cruzi RES I): 1400 ± 78 nM; EC50 (T. cruzi epimastigotes [2]; compound 1-resistant epimastigote clone RES II, read-out: EC50 against T. cruzi RES II): 2500 ± 62 nM; EC50 (T. cruzi epimastigotes [2]; compound 1-resistant epimastigote clone RES III, read-out: EC50 against T. cruzi RES III): 3800 ± 160 nM; EC50 ([3]; WT promastigotes, resistance study, read-out: EC50 against WT L. donovani (Figure 2)): 21.5 ± 0.5 nM; EC50 ([3]; compound 1-resistant promastigote clone RES I, read-out: EC50 against L. donovani RES I): 1300 ± 14 nM; EC50 ([3]; compound 1-resistant promastigote clone RES II, read-out: EC50 against L. donovani RES II): 1300 ± 96 nM; EC50 ([3]; compound 1-resistant promastigote clone RES III, read-out: EC50 against L. donovani RES III): 790 ± 27 nM; EC50 ([7]; bloodstream form, listed as DDD01542111 (compound 1)): 6700 ± 470 nM |
| Cc1cc(C)c2c(N)c(C(=O)N3CCC(C)(C)c4ccccc43)sc2n1 [compound 2] | 99 ± 13 | 71 ± 2 | 24 ± 2 | 140 ± 14 | 1100 ± 600 | 510 ± 119 | > 50000 | 30 ± 10 | 8000 ± 970 | 100 ± 24 | 30 | 4400 | 400 | IC50 [13]: 4200 ± 500 nM |
| Cc1nc2nc(C)c(Cc3ccc(C(C)C)cc3)c(=O)n2[nH]1 [TCMDC-143087] | – | – | – | – | – | – | – | – | – | – | – | – | – | EC50 [14]: 250 nM |
